Inconclusive results and toxic doses are left out. Cut-off read from the data, not from the text of the source: active = T/C of 150% or more; inactive = T/C below 125%.
Test system: L1210 leukemia ip in BDF1 mice, survival T/C
Test: NCI In Vivo Anticancer Drug Screen. Data for tumor model L1210 Leukemia (intraperitoneal) in B6D2F1 (BDF1) mice
Settings: endpoint: mean survival time, higher = longer survival
Procedure, shortened: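 In this screen, tumor-bearing mice given compound are compared to those given vehicle, and their survival values are reported as a treated-to-control quotient.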

[1] = dose: 25.0 mg/kg/injection, schedule: Q01DX009 (ip), vehicle: saline
[2] = dose: 100.0 mg/kg/injection, schedule: Q01DX009 (ip), vehicle: saline
[3] = dose: 200.0 mg/kg/injection, schedule: Q01DX009 (ip), vehicle: saline
[4] = dose: 400.0 mg/kg/injection, schedule: Q01DX009 (ip), vehicle: saline
[5] = dose: 100.0 mg/kg/injection, schedule: Q04DX003 (ip), vehicle: saline with Tween-80
[6] = dose: 200.0 mg/kg/injection, schedule: Q04DX003 (ip), vehicle: saline with Tween-80
[7] = dose: 400.0 mg/kg/injection, schedule: Q04DX003 (ip), vehicle: saline with Tween-80
[8] = dose: 100.0 mg/kg/injection, schedule: Q01DX009 (ip), vehicle: Klucel (hydroxypropylcellulose) (HPC)
[9] = dose: 100.0 mg/kg/injection, schedule: Q04DX003 (ip), vehicle: Klucel (hydroxypropylcellulose) (HPC)
[10] = dose: 200.0 mg/kg/injection, schedule: Q01DX009 (ip), vehicle: Klucel (hydroxypropylcellulose) (HPC)
[11] = dose: 200.0 mg/kg/injection, schedule: Q04DX003 (ip), vehicle: Klucel (hydroxypropylcellulose) (HPC)
[12] = dose: 400.0 mg/kg/injection, schedule: Q01DX009 (ip), vehicle: Klucel (hydroxypropylcellulose) (HPC)
[13] = dose: 400.0 mg/kg/injection, schedule: Q04DX003 (ip), vehicle: Klucel (hydroxypropylcellulose) (HPC)
[14] = dose: 100.0 mg/kg/injection, schedule: Q01DX009 (ip), vehicle: saline with Tween-80
[15] = dose: 200.0 mg/kg/injection, schedule: Q01DX009 (ip), vehicle: saline with Tween-80
[16] = dose: 50.0 mg/kg/injection, schedule: Q01DX009 (ip), vehicle: saline with Tween-80
[17] = dose: 100.0 mg/kg/injection, schedule: Q04DX003 (ip), vehicle: saline

Measured: T/C

Cc1cc(C(C)(C)CC(C)(C)C)ccc1O
inactive: dose: 100.0 mg/kg/injection, schedule: Q01DX009 (sc), vehicle: olive oil, sesame oil, peanut oil 100 % of control | dose: 100.0 mg/kg/injection, schedule: Q04DX003 (sc), vehicle: olive oil, sesame oil, peanut oil 110 % of control | dose: 200.0 mg/kg/injection, schedule: Q01DX009 (sc), vehicle: olive oil, sesame oil, peanut oil 100 % of control | dose: 200.0 mg/kg/injection, schedule: Q04DX003 (sc), vehicle: olive oil, sesame oil, peanut oil 101 % of control | dose: 400.0 mg/kg/injection, schedule: Q01DX009 (sc), vehicle: olive oil, sesame oil, peanut oil 96 % of control | dose: 400.0 mg/kg/injection, schedule: Q04DX003 (sc), vehicle: olive oil, sesame oil, peanut oil 105 % of control

CCC(C)NCCNCCNC(C)CC (configuration not stated)
inactive: dose: 6.25 mg/kg/injection, schedule: Q01DX009 (ip), vehicle: saline 101 % of control | dose: 6.25 mg/kg/injection, schedule: Q04DX003 (ip), vehicle: Klucel (hydroxypropylcellulose) (HPC) 102 % of control | dose: 12.5 mg/kg/injection, schedule: Q01DX009 (ip), vehicle: saline 108 % of control | dose: 12.5 mg/kg/injection, schedule: Q04DX003 (ip), vehicle: Klucel (hydroxypropylcellulose) (HPC) 102 % of control | [1] 90 % of control | dose: 25.0 mg/kg/injection, schedule: Q04DX003 (ip), vehicle: Klucel (hydroxypropylcellulose) (HPC) 109 % of control

CC(=O)[O][Sn]([CH2]C1CCCCC1)([CH2]C1CCCCC1)[CH2]C1CCCCC1
inactive: dose: 6.25 mg/kg/injection, schedule: Q04DX002 (ip), vehicle: saline with Tween-80 96 % of control | dose: 12.5 mg/kg/injection, schedule: Q04DX002 (ip), vehicle: saline with Tween-80 96 % of control

N#Cc1ccccc1CNc1ccccc1
inactive: dose: 100.0 mg/kg/injection, schedule: Q01DX001 (ip), vehicle: Klucel (hydroxypropylcellulose) (HPC) 94 % of control | dose: 200.0 mg/kg/injection, schedule: Q01DX001 (ip), vehicle: Klucel (hydroxypropylcellulose) (HPC) 96 % of control | dose: 400.0 mg/kg/injection, schedule: Q01DX001 (ip), vehicle: Klucel (hydroxypropylcellulose) (HPC) 96 % of control

OCC1OC(O)C(O)C(O)C1O (configuration not stated)
inactive: [2] 96 % of control | [3] 98 % of control | [4] 107 % of control | dose: 500.0 mg/kg/injection, schedule: Q01DX009 (ip), vehicle: saline 93 % of control | dose: 500.0 mg/kg/injection, schedule: Q04DX003 (ip), vehicle: saline 96 % of control | dose: 1000.0 mg/kg/injection, schedule: Q01DX009 (ip), vehicle: saline 90 % of control | dose: 1000.0 mg/kg/injection, schedule: Q04DX003 (ip), vehicle: saline 96 % of control | dose: 2000.0 mg/kg/injection, schedule: Q01DX009 (ip), vehicle: saline 106 % of control | dose: 2000.0 mg/kg/injection, schedule: Q04DX003 (ip), vehicle: saline 93 % of control | dose: 4000.0 mg/kg/injection, schedule: Q01DX009 (ip), vehicle: saline 102 % of control | dose: 4000.0 mg/kg/injection, schedule: Q04DX003 (ip), vehicle: saline 94 % of control

O=C(c1ccccc1)c1ccc(C(=O)c2ccccc2)c2c1C(=O)c1ccccc1C2=O
inactive: [5] 92 % of control | [6] 95 % of control | [7] 98 % of control

CC(=O)Nc1ccc(Cl)cc1C(=O)O
inactive: [8] 97 % of control | [9] 97 % of control | [10] 90 % of control | [11] 94 % of control | [12] 93 % of control | [13] 102 % of control

CCCCCCCC/C=C\CCCCCCCC(=O)OCCSCCOC(C)=O
inactive: [14] 97 % of control | [5] 89 % of control | [15] 102 % of control | [6] 92 % of control | dose: 400.0 mg/kg/injection, schedule: Q01DX009 (ip), vehicle: saline with Tween-80 102 % of control | [7] 94 % of control

CC(=O)OCC(C)(C)COS(=O)(=O)c1ccc(Br)cc1
inactive: [16] 100 % of control | [14] 89 % of control | [15] 89 % of control

O=C(O)Cc1cccnc1
inactive: [2] 102 % of control | [17] 101 % of control | [3] 100 % of control | dose: 200.0 mg/kg/injection, schedule: Q04DX003 (ip), vehicle: saline 104 % of control | [4] 89 % of control | dose: 400.0 mg/kg/injection, schedule: Q04DX003 (ip), vehicle: saline 95 % of control

COc1ccccc1/C=c1\[nH]c(=O)/c(=C/c2ccccc2OC)[nH]c1=O
inactive: [8] 88 % of control | [9] 101 % of control | [10] 86 % of control | [11] 101 % of control | [12] 86 % of control | [13] 98 % of control

CCCCN(CC)C(=S)[S-].CCCCN(CC)C(=S)[S-].[Zn]
inactive: dose: 2.5 mg/kg/injection, schedule: Q01DX009 (ip), vehicle: saline 100 % of control | dose: 5.0 mg/kg/injection, schedule: Q01DX009 (ip), vehicle: saline 95 % of control | dose: 10.0 mg/kg/injection, schedule: Q01DX001 (ip), vehicle: saline 98 % of control | dose: 10.0 mg/kg/injection, schedule: Q01DX009 (ip), vehicle: saline 95 % of control | dose: 10.0 mg/kg/injection, schedule: Q04DX003 (ip), vehicle: saline 105 % of control | dose: 20.0 mg/kg/injection, schedule: Q01DX001 (ip), vehicle: saline 89 % of control | dose: 20.0 mg/kg/injection, schedule: Q04DX003 (ip), vehicle: saline 103 % of control | dose: 40.0 mg/kg/injection, schedule: Q01DX001 (ip), vehicle: saline 91 % of control

CC(C)(C)/C=N/Nc1ccc([N+](=O)[O-])cc1[N+](=O)[O-]
inactive: [8] 108 % of control | [10] 106 % of control | [12] 102 % of control

CC1([N+](=O)[O-])COP(=O)(NCc2ccccn2)OC1 (configuration not stated)
inactive: dose: 50.0 mg/kg/injection, schedule: Q01DX001 (ip), vehicle: carboxymethylcellulose (CMC) 107 % of control | dose: 100.0 mg/kg/injection, schedule: Q01DX001 (ip), vehicle: carboxymethylcellulose (CMC) 103 % of control | dose: 200.0 mg/kg/injection, schedule: Q01DX001 (ip), vehicle: carboxymethylcellulose (CMC) 97 % of control | dose: 400.0 mg/kg/injection, schedule: Q01DX001 (ip), vehicle: carboxymethylcellulose (CMC) 103 % of control

Cc1ccc(C(=O)C2CC2)cc1C
inactive: [16] 100 % of control | [14] 91 % of control | [5] 98 % of control | [15] 91 % of control | dose: 202.0 mg/kg/injection, schedule: Q04DX003 (ip), vehicle: saline with Tween-80 107 % of control

COC(=O)c1cc(Br)ccc1OCC(=O)Nc1ccccc1
inactive: [5] 94 % of control | [6] 94 % of control | [7] 91 % of control

NC(=O)NC(=O)C1C2C=CC(C2)C1C(=O)NC(N)=O (configuration not stated)
inactive: [5] 100 % of control | [6] 100 % of control | [7] 91 % of control

CCOC(=O)NNC(=S)NCc1ccccc1
inactive: [8] 102 % of control | [10] 98 % of control

N#CCCCN1CCCCCC1
inactive: [1] 98 % of control | dose: 25.0 mg/kg/injection, schedule: Q04DX003 (ip), vehicle: saline 101 % of control | dose: 50.0 mg/kg/injection, schedule: Q01DX009 (ip), vehicle: saline 93 % of control | dose: 50.0 mg/kg/injection, schedule: Q04DX003 (ip), vehicle: saline 101 % of control | [17] 101 % of control

CCCCCC[Si]CCCCCC
inactive: dose: 100.0 mg/kg/injection, schedule: Q01DX001 (ip), vehicle: saline with Tween-80 94 % of control | dose: 200.0 mg/kg/injection, schedule: Q01DX001 (ip), vehicle: saline with Tween-80 100 % of control | dose: 400.0 mg/kg/injection, schedule: Q01DX001 (ip), vehicle: saline with Tween-80 94 % of control

COc1ccc(-n2c(=O)c(N=Nc3ccccc3C)c(O)n(-c3ccccc3C)c2=S)cc1
inactive: dose: 37.5 mg/kg/injection, schedule: Q01DX001 (ip), vehicle: Klucel (hydroxypropylcellulose) (HPC) 100 % of control | dose: 75.0 mg/kg/injection, schedule: Q01DX001 (ip), vehicle: Klucel (hydroxypropylcellulose) (HPC) 97 % of control | dose: 150.0 mg/kg/injection, schedule: Q01DX001 (ip), vehicle: Klucel (hydroxypropylcellulose) (HPC) 100 % of control

— PubChem BioAssay AID248 (DTP/NCI, 2004)
